From PMC2409895, “Antitumour efficacy of VEGFR2 tyrosine kinase inhibitor correlates with expression of VEGF and its receptor VEGFR2 in tumour models” (British Journal of Cancer, 2004)
pIC50: −log10 of the molar value.

Assays:
[1] = test system: HUVEC grown in presence of VEGF; assay: VEGF-induced HUVEC proliferation (BrdU incorporation); assay type: cell-based; conditions: Homo sapiens, VEGF 10 ng ml^−1, 72 h
Method: (§1) Effect of kinase inhibitors on cell proliferation was measured using BrdU incorporation method using commercially available kits (Roche Diagnostics, Indianapolis, IN, USA). Briefly, HUVEC were seeded in a medium containing 5% FBS in type 1 Collagen-coated 96-well plates and incubated overnight at 37°C, 5% CO2. The medium was aspirated from the cells, and various concentrations of kinase inhibitors in serum-free medium were added to each well. After 30 min, VEGF (10 ng ml^−1) or bFGF (0.3 ng ml^−1) was added to the wells. Cells were incubated for an additional 72 h and BrdU (10 μM) was added during the last 18–24 h of incubation. Data were fitted with a curve described by the equation, y=Vmax × (1−(x/(K+x))), where K is equal to the IC50.

[2] = test system: HUVEC grown in presence of bFGF; assay: bFGF-induced HUVEC proliferation (BrdU incorporation); assay type: cell-based; conditions: Homo sapiens, bFGF 0.3 ng ml^−1, 72 h
Method: as §1

human VEGFR2 kinase = target: T1, human VEGFR2 kinase (Homo sapiens, UniProt P35968); assay: VEGFR2 kinase assay (HTRF); assay type: biochemical; conditions: Table 1
T1 construct: GST-fusion protein encoding the catalytic carboxyl-terminus of human VEGFR kinase 1, 2, or 3; made in house; host or cells: baculovirus expression system
Method: Vascular endothelial growth factor receptor kinase assays were carried out in a homogenous time-resolved fluorescence (HTRF) format in 384-well microtitre plates using a purified, baculovirus-expressed GST-fusion protein encoding the catalytic carboxyl-terminus of human VEGFR kinase 1, 2, or 3. Reactions were initiated by the addition of 10 μl of activated VEGFR kinase (1 nM, 0.1 M HEPES pH 7.5, 0.1 mg ml^−1 BSA, and 0.30 mM DTT) to 10 μl of substrate (360 nM biotin-aminohexyl-EEEEYFELVAKKKK-NH2 peptide, 75 μM ATP, 10 mM MgCl2) and 1 μl of small molecule inhibitor at various concentrations. Plates were incubated at room temperature for 60 min, and the reaction was stopped by the addition of 20 μl 100 mM EDTA. Homogenous time-resolved fluorescence reagents (20 μl 15 nM streptavidin-linked allophycocyanin, 1 nM europium-labelled anti-phosphotyrosine antibody in 0.1 M HEPES, pH 7.5, 0.1 mg ml^−1 BSA) were added and plates were incubated for a minimum of 10 min. The fluorescence at 665 nm was measured with a Victor plate reader (Wallac, Shelton, CT, USA) using a time delay of 50 μs. […] Data were fitted with a curve described by: y=((Vmax × x)/(K+x)+Y2), where Vmax is the upper asymptote, Y2 is the Y intercept, and K is the IC50.

T1 sequence (P35968 834-1162 limits assumed): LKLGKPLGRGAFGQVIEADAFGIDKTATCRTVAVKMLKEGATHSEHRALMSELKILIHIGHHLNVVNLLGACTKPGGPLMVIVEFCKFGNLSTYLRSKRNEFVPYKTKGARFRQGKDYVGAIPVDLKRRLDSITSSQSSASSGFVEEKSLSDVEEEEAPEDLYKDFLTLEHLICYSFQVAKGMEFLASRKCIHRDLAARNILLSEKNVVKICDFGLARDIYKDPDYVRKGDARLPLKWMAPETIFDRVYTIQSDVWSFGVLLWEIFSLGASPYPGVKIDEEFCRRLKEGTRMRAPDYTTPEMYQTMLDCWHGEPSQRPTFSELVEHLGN

Structure (SMILES): COc1cc(Nc2nccc(Nc3ccc4c(C)n[nH]c4c3)n2)cc(OC)c1OC [GW612286, N^4-(3-methyl-1H-indazol-6-yl)-N^2-(3,4,5-trimethoxyphenyl)pyrimidine-2,4-diamine]
- pIC50 [1]: 6.74
- pIC50 [2]: 5.44
- pIC50 (human VEGFR2 kinase): 8.10
